One experiment addresses T1, Fatty Acid Synthase (Gallus gallus, UniProt P12276).
T1 construct: hepatocytes isolated from livers of 8-week old female chickens; endogenous in cells; host or cells: primary chicken hepatocytes
Kind of experiment: Fatty acid synthase activity in isolated chicken hepatocytes. It is filed as cell-based. The procedure:
(§1) This study measured the effects of three tocotrienols isolated from rice bran on cholesterol-related enzyme activity in hepatocytes isolated from livers of 8-week old female chickens. The chickens were fed the chick mash diet for 8 weeks. They were then fasted for 40 hours and finally refed for 48 hours before sacrifice. The hepatocytes were then prepared following standard methods.
(§2) Each compound was isolated from TRF using the following protocol: A bond Elute amine column was equilibrated with 2 ml hexane. 10 mg of TRF (dissolved in 0.5 ml hexane) was bound to the amine column. The column was washed with 1 ml of hexane, then with 1 ml of 3% isopropanol in hexane. P-21 and P-25 were eluted off the column with 5% isopropanol in hexane. Then using 10% isopropanol in hexane, the impurity P-20 was eluted. α-tocotrienol was also tested.

Experiment [1] has as its system cholesterol 7α-hydroxylase. The experiment in a line: Cholesterol 7α-hydroxylase activity in isolated chicken hepatocytes. The experiment is classed as cell-based. On the procedure:
as §1, §2

In experiment [2] the test system is hypercholesterolemic swine. Kind of experiment: Body weight gain and feed conversion efficiency in hypercholesterolemic swine. The experiment is classed as in vivo. To be noted: control diet + 50 ppm. On the procedure: Each group of three 5-month old swine was administered either a control diet or a control diet supplemented with 50 ppm of TRF or 50 ppm of an individual tocotrienol. The samples were prepared as described in Example 11. After a 12 hour fast, serum and plasma samples were taken a 0 hrs, 21 days and 42 days from the start of the feeding period. After taking serum and plasma samples from the pigs at the end of the 42 day period, all of the swine were fasted for a total of 40 hours, followed by a 48 hour refeeding period. One swine from each group was sacrificed at that time and the liver, intestine, lung, heart, loin muscle, adipose tissue and ham muscle were removed.

The target of the next experiment is T2, HMG-CoA reductase (Homo sapiens, UniProt P04035).
T2 construct: hepatocytes isolated from livers of 8-week old female chickens; endogenous in cells; host or cells: primary chicken hepatocytes
T2 sequence (P04035 1-888): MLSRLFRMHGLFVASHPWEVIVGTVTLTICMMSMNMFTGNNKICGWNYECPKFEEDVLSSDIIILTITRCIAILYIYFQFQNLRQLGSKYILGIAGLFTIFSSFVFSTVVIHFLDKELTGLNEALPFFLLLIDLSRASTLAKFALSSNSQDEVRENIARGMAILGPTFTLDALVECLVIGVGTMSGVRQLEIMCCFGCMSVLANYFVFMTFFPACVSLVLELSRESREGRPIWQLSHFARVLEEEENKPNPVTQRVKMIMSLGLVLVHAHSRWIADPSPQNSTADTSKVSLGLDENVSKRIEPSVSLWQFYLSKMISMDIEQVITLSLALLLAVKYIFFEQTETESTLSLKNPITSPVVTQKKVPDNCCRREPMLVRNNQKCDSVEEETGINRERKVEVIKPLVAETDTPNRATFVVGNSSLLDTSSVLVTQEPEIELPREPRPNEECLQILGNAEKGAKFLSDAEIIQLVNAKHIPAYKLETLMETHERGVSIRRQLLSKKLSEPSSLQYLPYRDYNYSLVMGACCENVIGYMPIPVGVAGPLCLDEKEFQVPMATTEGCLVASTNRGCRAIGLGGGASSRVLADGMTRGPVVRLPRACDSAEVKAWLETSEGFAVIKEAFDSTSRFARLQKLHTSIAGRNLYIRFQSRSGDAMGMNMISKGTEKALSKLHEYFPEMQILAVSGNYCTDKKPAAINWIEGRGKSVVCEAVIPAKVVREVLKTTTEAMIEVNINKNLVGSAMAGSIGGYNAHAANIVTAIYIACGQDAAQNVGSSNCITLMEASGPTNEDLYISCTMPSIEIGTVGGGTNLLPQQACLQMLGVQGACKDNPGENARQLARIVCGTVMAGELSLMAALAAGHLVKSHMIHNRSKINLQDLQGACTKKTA
Kind of experiment: HMG-CoA reductase activity in isolated chicken hepatocytes. It is filed as cell-based. On the procedure: as §1, §2
We next measured the effects of various tocotrienols and tocotrienol-like compounds isolated from rice bran on the activity of HMG-CoA reductase. 20.0 g of stabilized rice bran was extracted with 200.0 ml of methanol to remove various UV absorbing impurities and tocotrienols (6.7 mg total). This step was repeated four times. The remaining residue was dried under vacuum in a desiccator and then heated at 180° C. for 2 hours under 30 psi pressure. Then the dried residue was extracted again with 200.0 ml methanol (3.4 mg). […]

The test system of experiment [3] is human peripheral blood neutrophils. The experiment in a line: Release of superoxide in human peripheral blood neutrophils. The experiment is classed as cell-based. Particulars: for 5×10^5 cells/hour, phorbol myrstate acetate. From the text: We determined the effect of a known tocotrienol, γ-T3, on the release of superoxide in human peripheral blood neutrophils. Neutrophils are an extracellular source of oxygen free radicals. Once activated, these neutrophils can attach to endothelial tissue where they release a potent toxin, superoxide. Superoxide amplifies the inflammatory response and impairs local circulation of the blood.
The neutrophils we tested were isolated by density centrifugation on Ficoll-Hypaque gradients using conventional methods (see E. Serbinova et al., "Free Radical Recycling and Intramembrane Mobility in the Antioxidant Properties of α-Tocopherol and α-Tocotrienol", Free Rad. Bio. and Med., 10, pp. 263-75 (1991)). The neutrophils were then placed in a 96-well plate. γ-T3 and phorbol myrstate acetate were added to the wells at the same time. The secretion of superoxide anion was measured as the superoxide dismutase-inhibitable reduction of ferricytochrome C.

Several values for one entry are separate records, joined by “and”; a condition that tells them apart may be missing. Equal values may be shown once.

T1 sequence (P12276 2-2512 limits assumed): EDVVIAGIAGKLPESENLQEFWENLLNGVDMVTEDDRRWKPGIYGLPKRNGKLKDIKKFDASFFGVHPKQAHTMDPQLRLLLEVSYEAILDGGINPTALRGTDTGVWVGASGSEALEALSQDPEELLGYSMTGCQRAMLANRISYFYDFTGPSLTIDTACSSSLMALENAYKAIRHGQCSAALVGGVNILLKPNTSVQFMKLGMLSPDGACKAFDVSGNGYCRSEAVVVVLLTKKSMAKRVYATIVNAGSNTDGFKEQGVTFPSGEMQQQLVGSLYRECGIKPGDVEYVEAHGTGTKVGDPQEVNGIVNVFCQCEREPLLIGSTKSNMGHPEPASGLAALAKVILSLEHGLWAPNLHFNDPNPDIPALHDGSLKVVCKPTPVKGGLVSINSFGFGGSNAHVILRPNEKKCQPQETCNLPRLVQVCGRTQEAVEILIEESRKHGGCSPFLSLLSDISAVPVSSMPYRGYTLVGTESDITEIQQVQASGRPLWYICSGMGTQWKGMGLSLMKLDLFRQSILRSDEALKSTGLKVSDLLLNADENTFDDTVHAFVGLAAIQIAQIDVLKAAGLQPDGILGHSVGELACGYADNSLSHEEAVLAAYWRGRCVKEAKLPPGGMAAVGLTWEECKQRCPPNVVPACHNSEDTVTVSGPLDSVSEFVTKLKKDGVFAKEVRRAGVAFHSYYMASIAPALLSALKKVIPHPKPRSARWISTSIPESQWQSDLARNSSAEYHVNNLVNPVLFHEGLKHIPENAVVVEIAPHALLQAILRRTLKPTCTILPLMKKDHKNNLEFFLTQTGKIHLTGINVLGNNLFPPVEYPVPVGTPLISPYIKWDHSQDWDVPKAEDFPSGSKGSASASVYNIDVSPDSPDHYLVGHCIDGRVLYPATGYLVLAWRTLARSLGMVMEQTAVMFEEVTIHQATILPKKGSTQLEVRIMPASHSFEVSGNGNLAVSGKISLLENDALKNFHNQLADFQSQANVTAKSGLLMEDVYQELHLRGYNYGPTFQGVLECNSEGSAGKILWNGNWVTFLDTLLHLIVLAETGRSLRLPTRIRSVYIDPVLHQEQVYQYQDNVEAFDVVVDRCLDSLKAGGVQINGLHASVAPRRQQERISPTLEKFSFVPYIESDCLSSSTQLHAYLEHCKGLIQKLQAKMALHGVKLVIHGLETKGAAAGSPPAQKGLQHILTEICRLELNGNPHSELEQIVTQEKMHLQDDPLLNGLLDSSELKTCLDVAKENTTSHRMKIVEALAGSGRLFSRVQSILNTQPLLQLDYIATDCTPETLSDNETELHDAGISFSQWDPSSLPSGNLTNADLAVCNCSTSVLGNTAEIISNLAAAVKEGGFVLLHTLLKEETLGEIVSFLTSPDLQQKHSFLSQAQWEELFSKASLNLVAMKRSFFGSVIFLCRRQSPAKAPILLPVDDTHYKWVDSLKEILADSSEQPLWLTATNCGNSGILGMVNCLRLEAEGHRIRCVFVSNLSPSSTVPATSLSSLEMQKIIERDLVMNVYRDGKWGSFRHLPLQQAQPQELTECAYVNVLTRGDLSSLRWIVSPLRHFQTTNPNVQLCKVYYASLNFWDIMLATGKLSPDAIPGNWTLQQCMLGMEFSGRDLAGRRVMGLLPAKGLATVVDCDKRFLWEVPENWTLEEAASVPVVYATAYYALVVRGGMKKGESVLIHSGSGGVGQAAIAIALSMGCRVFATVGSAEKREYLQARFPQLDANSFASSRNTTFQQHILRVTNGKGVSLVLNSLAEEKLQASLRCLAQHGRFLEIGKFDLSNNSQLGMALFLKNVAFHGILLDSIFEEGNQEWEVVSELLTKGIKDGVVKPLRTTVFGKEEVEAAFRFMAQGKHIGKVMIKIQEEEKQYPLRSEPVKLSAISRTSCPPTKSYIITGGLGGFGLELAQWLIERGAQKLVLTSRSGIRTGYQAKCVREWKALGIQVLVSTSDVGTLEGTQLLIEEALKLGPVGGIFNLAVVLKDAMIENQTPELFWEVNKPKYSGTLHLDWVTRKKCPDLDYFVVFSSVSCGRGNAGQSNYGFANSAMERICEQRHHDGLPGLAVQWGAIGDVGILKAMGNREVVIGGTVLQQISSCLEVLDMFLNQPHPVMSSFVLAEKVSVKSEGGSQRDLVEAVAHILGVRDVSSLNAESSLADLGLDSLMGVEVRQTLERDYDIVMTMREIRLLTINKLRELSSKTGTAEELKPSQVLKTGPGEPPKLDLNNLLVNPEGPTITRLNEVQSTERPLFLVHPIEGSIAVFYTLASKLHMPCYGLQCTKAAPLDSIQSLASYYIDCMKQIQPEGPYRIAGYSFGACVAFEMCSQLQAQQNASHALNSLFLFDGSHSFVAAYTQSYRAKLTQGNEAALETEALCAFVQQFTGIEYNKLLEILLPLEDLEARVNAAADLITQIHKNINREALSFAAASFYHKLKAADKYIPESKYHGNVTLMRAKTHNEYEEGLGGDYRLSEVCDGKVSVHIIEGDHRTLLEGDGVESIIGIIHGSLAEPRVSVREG

On to `CC(C)=CCC/C(C)=C/CC/C(C)=C/CCC1(C)CCc2cc(O)ccc2O1` (stereo not shown) [P21, 3,4-dihydro-2-methyl-2-(4,8,12-trimethyltrideca-3' (E),7'(E),11'-trienyl)-2H-1-benzopyran-6-ol], for which the “Fatty Acid Synthase” value at Fatty Acid Synthase (10.0 μg/mL) amounted to 14.3 nmol/min/mg; on Fatty Acid Synthase (20.0 μg/mL) it was 12.7 nmol/min/mg; on Fatty Acid Synthase (40.0 μg/mL), 11.8 nmol/min/mg; on Fatty Acid Synthase (80.0 μg/mL) it was 10.2 nmol/min/mg. For the same compound, the “Fatty Acid Synthase, percentage of 0.0 μg/mL” value on Fatty Acid Synthase (10.0 μg/mL) was found to be 83.1%; on Fatty Acid Synthase (20.0 μg/mL) it was 73.8%; on Fatty Acid Synthase (40.0 μg/mL) it was 68.6%; on Fatty Acid Synthase (80.0 μg/mL), 59.3%. Moreover, the “Cholesterol 7α-hydroxylase” value was found to be 2.41 pmol/min/mg in experiment [1] (10.0 μg/mL), 3.40 pmol/min/mg in experiment [1] (20.0 μg/mL), 2.39 pmol/min/mg in experiment [1] (40.0 μg/mL) and 1.37 pmol/min/mg in experiment [1] (80.0 μg/mL). Moreover, the “Cholesterol 7α-hydroxylase, percentage of 0.0 μg/mL” value in experiment [1] (10.0 μg/mL) worked out at 104.3%; in experiment [1] (20.0 μg/mL) it was 103.9%; in experiment [1] (40.0 μg/mL) it was 103.5%; in experiment [1] (80.0 μg/mL) it was 102.6%. In experiment [2], the “increase of feed conversion efficiency” value was 7%.

On to `CC(C)=CCC/C(C)=C/CC/C(C)=C/CCC1CCc2cc(O)ccc2O1` (stereo not shown) [P25, 3,4-dihydro-2-(4,8,12-trimethyltrideca-3'(E),7'(E),11'-trienyl)-2H-1-benzopyran-6-ol], for which the “maximum reduction in activity of HMG-CoA reductase” value at HMG-CoA reductase is 46.6% and 58.6%. Also, the “Fatty Acid Synthase” value on Fatty Acid Synthase (10.0 μg/mL) is 16.2 nmol/min/mg; at Fatty Acid Synthase (20.0 μg/mL), 14.3 nmol/min/mg; on Fatty Acid Synthase (40.0 μg/mL), 12.7 nmol/min/mg; at Fatty Acid Synthase (80.0 μg/mL), 12.1 nmol/min/mg. Also, the “Fatty Acid Synthase, percentage of 0.0 μg/mL” value on Fatty Acid Synthase (10.0 μg/mL) worked out at 94.2%; at Fatty Acid Synthase (20.0 μg/mL), 83.1%; at Fatty Acid Synthase (40.0 μg/mL) it was 73.8%; at Fatty Acid Synthase (80.0 μg/mL) it was 70.3%. The “Cholesterol 7α-hydroxylase” value in experiment [1] (10.0 μg/mL) is 2.33 pmol/min/mg; in experiment [1] (20.0 μg/mL), 2.37 pmol/min/mg; in experiment [1] (40.0 μg/mL), 2.44 pmol/min/mg; in experiment [1] (80.0 μg/mL) it was 2.37 pmol/min/mg. In addition, the “Cholesterol 7α-hydroxylase, percentage of 0.0 μg/mL” value in experiment [1] (10.0 μg/mL) amounted to 100.9%; in experiment [1] (20.0 μg/mL), 102.61%; in experiment [1] (40.0 μg/mL), 105.6%; in experiment [1] (80.0 μg/mL), 102.6%. In experiment [2], the “increase of feed conversion efficiency” value was 10%.

With `CC(C)=CCC/C(C)=C/CC/C(C)=C/CCC1(C)CCc2cc(O)c(C)c(C)c2O1` (stereo not shown) [γ-T3, γ-tocotrienol, reference compound], the “amount of superoxide released (control 19.7 nmole)” value in experiment [3] (concentration 10^-5) is 0 nmol; in experiment [3] (concentration 10^-6) it was 8.0 nmol.
